Experimental findings from ChEMBL document CHEMBL4813928, “Targeted Isolation of Asperheptatides from a Coral-Derived Fungus Using LC-MS/MS-Based Molecular Networking and Antitubercular Activities of Modified Cinnamate Derivatives” (2021) are described below.

In experiment [1] the test system is Mycobacterium tuberculosis. Nature of the experiment: Antitubercular activity against Mycobacterium tuberculosis H37Ra assessed as bacterial growth inhibition relative to parent compound. It counts as functional.
The subject of experiment [2] is Mycobacterium tuberculosis. The experiment in a line: Antitubercular activity against Mycobacterium tuberculosis H37Ra assessed as bacterial growth inhibition. It counts as functional.

In brackets after ≈: the same amount, converted by molar mass. Square brackets hold non-standard residues; d marks the D form. Peptide text beside a SMILES is read from it.

Regarding `COc1ccc(/C=C/C(=O)OC[C@H]2NC(=O)[C@@H](C(C)C)NC(=O)[C@H](Cc3ccccc3)NC(=O)[C@@H](C(C)C)NC(=O)[C@@H](C)NC(=O)[C@H](CO)NC(=O)[C@@H](Cc3c[nH]c4ccccc34)NC2=O)cc1`, the “fold change (FC)” value in experiment [1] turned out to be 10. Also, the MIC (as a rule, the lowest concentration that inhibits growth of the organism) in experiment [2] is 12.5 µM (≈ 11.7 µg/mL).

For `CC(C)[C@H]1NC(=O)[C@H](Cc2ccccc2)NC(=O)[C@@H](C(C)C)NC(=O)[C@@H](C)NC(=O)[C@H](COC(=O)/C=C/c2ccccc2Cl)NC(=O)[C@@H](Cc2c[nH]c3ccccc23)NC(=O)[C@@H](COC(=O)/C=C/c2ccccc2Cl)NC1=O`, the minimum inhibitory concentration (MIC) in experiment [2] was 50 µM (≈ 55.3 µg/mL).

For `Cc1ccccc1/C=C/C(=O)OC[C@@H]1NC(=O)[C@@H](Cc2c[nH]c3ccccc23)NC(=O)[C@@H](COC(=O)/C=C/c2ccccc2C)NC(=O)[C@@H](C(C)C)NC(=O)[C@H](Cc2ccccc2)NC(=O)[C@@H](C(C)C)NC(=O)[C@@H](C)NC1=O`, in experiment [1], the “fold change (FC)” value is on record as 10. Further, the MIC in experiment [2] was 12.5 µM (≈ 13.3 µg/mL).

Consider `COc1ccc(/C=C/C(=O)OC[C@@H]2NC(=O)[C@@H](Cc3c[nH]c4ccccc34)NC(=O)[C@@H](COC(=O)/C=C/c3ccc(OC)c(OC)c3)NC(=O)[C@@H](C(C)C)NC(=O)[C@H](Cc3ccccc3)NC(=O)[C@@H](C(C)C)NC(=O)[C@@H](C)NC2=O)cc1OC`, for which, in experiment [2], the MIC was determined as 100 µM (≈ 116 µg/mL).

For `CC(C)[C@H]1NC(=O)[C@H](Cc2ccccc2)NC(=O)[C@@H](C(C)C)NC(=O)[C@@H](C)NC(=O)[C@H](CO)NC(=O)[C@@H](Cc2c[nH]c3ccccc23)NC(=O)[C@@H](COC(=O)/C=C/c2ccccc2)NC1=O`, in experiment [2], the minimal inhibitory concentration (MIC) is above 100 µM.

For `CC(C)[C@H]1NC(=O)[C@H](Cc2ccccc2)NC(=O)[C@@H](C(C)C)NC(=O)[C@@H](C)NC(=O)[C@H](CO)NC(=O)[C@@H](Cc2c[nH]c3ccccc23)NC(=O)[C@@H](COC(=O)/C=C/c2ccc(N(C)C)cc2)NC1=O`, in experiment [2], the minimal inhibitory concentration (MIC) worked out at 50 µM (≈ 47.5 µg/mL).

For `COc1cc(Br)c(/C=C/C(=O)OC[C@H]2NC(=O)[C@@H](C(C)C)NC(=O)[C@H](Cc3ccccc3)NC(=O)[C@@H](C(C)C)NC(=O)[C@@H](C)NC(=O)[C@H](CO)NC(=O)[C@@H](Cc3c[nH]c4ccccc34)NC2=O)cc1OC`, the MIC in experiment [2] was determined as 50 µM (≈ 52.3 µg/mL).

With `CC(C)[C@H]1NC(=O)[C@H](Cc2ccccc2)NC(=O)[C@@H](C(C)C)NC(=O)[C@@H](C)NC(=O)[C@H](COC(=O)/C=C/c2ccccc2)NC(=O)[C@@H](Cc2c[nH]c3ccccc23)NC(=O)[C@@H](COC(=O)/C=C/c2ccccc2)NC1=O`, the MIC in experiment [2] is above 100 µM.

In the case of `COc1cc(/C=C/C(=O)OC[C@@H]2NC(=O)[C@@H](Cc3c[nH]c4ccccc34)NC(=O)[C@@H](COC(=O)/C=C/c3ccc(OCc4ccccc4)c(OC)c3)NC(=O)[C@@H](C(C)C)NC(=O)[C@H](Cc3ccccc3)NC(=O)[C@@H](C(C)C)NC(=O)[C@@H](C)NC2=O)ccc1OCc1ccccc1`, the MIC in experiment [2] came out at 100 µM (≈ 131 µg/mL).

Turning to `CC(C)[C@H]1NC(=O)[C@H](Cc2ccccc2)NC(=O)[C@@H](C(C)C)NC(=O)[C@@H](C)NC(=O)[C@H](COC(=O)/C=C/c2ccc(N(C)C)cc2)NC(=O)[C@@H](Cc2c[nH]c3ccccc23)NC(=O)[C@@H](COC(=O)/C=C/c2ccc(N(C)C)cc2)NC1=O`, in experiment [2], the MIC amounted to 50 µM (≈ 56.2 µg/mL).

As to `CC(C)[C@H]1NC(=O)[C@H](Cc2ccccc2)NC(=O)[C@@H](C(C)C)NC(=O)[C@@H](C)NC(=O)[C@H](COC(=O)/C=C/c2ccc(F)cc2)NC(=O)[C@@H](Cc2c[nH]c3ccccc23)NC(=O)[C@@H](COC(=O)/C=C/c2ccc(F)cc2)NC1=O`, the MIC in experiment [2] came to 50 µM (≈ 53.7 µg/mL).

With `CC(C)[C@H]1NC(=O)CNC(=O)[C@H](CO)NC(=O)[C@@H](Cc2c[nH]c3ccccc23)NC(=O)[C@@H](C)NC(=O)[C@@H](C(C)C)NC(=O)[C@H](Cc2ccccc2)NC1=O`, in experiment [2], the MIC is 100 µM (≈ 74.7 µg/mL).

With `CC(C)[C@H]1NC(=O)[C@H](Cc2ccccc2)NC(=O)[C@@H](C(C)C)NC(=O)[C@@H](C)NC(=O)[C@H](COC(=O)/C=C/c2ccc(F)c(F)c2)NC(=O)[C@@H](Cc2c[nH]c3ccccc23)NC(=O)[C@@H](COC(=O)/C=C/c2ccc(F)c(F)c2)NC1=O`, the “fold change (FC)” value in experiment [1] is given as 10. Besides, the MIC in experiment [2] was found to be 12.5 µM (≈ 13.9 µg/mL).

As to `CC(C)[C@H]1NC(=O)[C@H](Cc2ccccc2)NC(=O)[C@@H](C(C)C)NC(=O)[C@@H](C)NC(=O)[C@H](COC(=O)/C=C/c2ccc(C(F)(F)F)cc2)NC(=O)[C@@H](Cc2c[nH]c3ccccc23)NC(=O)[C@@H](COC(=O)/C=C/c2ccc(C(F)(F)F)cc2)NC1=O`, the MIC in experiment [2] came out at 100 µM (≈ 117 µg/mL).

As to `COc1cc(Br)c(/C=C/C(=O)OC[C@@H]2NC(=O)[C@@H](Cc3c[nH]c4ccccc34)NC(=O)[C@@H](COC(=O)/C=C/c3cc(OC)c(OC)cc3Br)NC(=O)[C@@H](C(C)C)NC(=O)[C@H](Cc3ccccc3)NC(=O)[C@@H](C(C)C)NC(=O)[C@@H](C)NC2=O)cc1OC`, the MIC in experiment [2] amounted to 100 µM (≈ 132 µg/mL).

Regarding `COc1ccc(/C=C/C(=O)OC[C@@H]2NC(=O)[C@@H](Cc3c[nH]c4ccccc34)NC(=O)[C@@H](COC(=O)/C=C/c3ccc(OC)cc3)NC(=O)[C@@H](C(C)C)NC(=O)[C@H](Cc3ccccc3)NC(=O)[C@@H](C(C)C)NC(=O)[C@@H](C)NC2=O)cc1`, the MIC in experiment [2] is 100 µM (≈ 110 µg/mL).

On to `COc1cc(/C=C/C(=O)OC[C@H]2NC(=O)[C@@H](C(C)C)NC(=O)[C@H](Cc3ccccc3)NC(=O)[C@@H](C(C)C)NC(=O)[C@@H](C)NC(=O)[C@H](CO)NC(=O)[C@@H](Cc3c[nH]c4ccccc34)NC2=O)ccc1OCc1ccccc1`, for which the minimal inhibitory concentration (MIC) in experiment [2] stood at 50 µM (≈ 52.2 µg/mL).

As to `CC(C)[C@H]1NC(=O)CNC(=O)[C@H](C)NC(=O)[C@@H](Cc2c[nH]c3ccccc23)NC(=O)[C@@H](CO)NC(=O)[C@@H](C(C)C)NC(=O)[C@H](Cc2ccccc2)NC1=O`, the minimum inhibitory concentration (MIC) in experiment [2] is 100 µM (≈ 74.7 µg/mL).

`CC(C)[C@H]1NC(=O)[C@H](Cc2ccccc2)NC(=O)[C@@H](C(C)C)NC(=O)[C@@H](C)NC(=O)[C@H](COC(=O)/C=C/c2cccc(Cl)c2)NC(=O)[C@@H](Cc2c[nH]c3ccccc23)NC(=O)[C@@H](COC(=O)/C=C/c2cccc(Cl)c2)NC1=O`: the minimum inhibitory concentration (MIC) in experiment [2] came out at 100 µM (≈ 111 µg/mL).

`Cc1ccc(/C=C/C(=O)OC[C@@H]2NC(=O)[C@@H](Cc3c[nH]c4ccccc34)NC(=O)[C@@H](COC(=O)/C=C/c3ccc(C)cc3)NC(=O)[C@@H](C(C)C)NC(=O)[C@H](Cc3ccccc3)NC(=O)[C@@H](C(C)C)NC(=O)[C@@H](C)NC2=O)cc1`: the “fold change (FC)” value in experiment [1] came to 10. Moreover, the MIC in experiment [2] worked out at 12.5 µM (≈ 13.3 µg/mL).

Take `CC(C)[C@H]1NC(=O)[C@H](Cc2ccccc2)NC(=O)[C@@H](C(C)C)NC(=O)[C@@H](C)NC(=O)[C@H](COC(=O)/C=C/c2ccc(Cl)cc2)NC(=O)[C@@H](Cc2c[nH]c3ccccc23)NC(=O)[C@@H](COC(=O)/C=C/c2ccc(Cl)cc2)NC1=O`: the minimal inhibitory concentration (MIC) in experiment [2] was 50 µM (≈ 55.3 µg/mL).

As to `CC(C)[C@H]1NC(=O)[C@H](Cc2ccccc2)NC(=O)[C@@H](C(C)C)NC(=O)[C@@H](C)NC(=O)[C@H](C)NC(=O)[C@@H](Cc2c[nH]c3ccccc23)NC(=O)[C@@H](C)NC1=O` (cyclo([dV][dA][dW]A[dA][dV]F)), in experiment [2], the minimum inhibitory concentration (MIC) turned out to be 100 µM (≈ 74.5 µg/mL).

In the case of `CC(C)[C@H]1NC(=O)CNC(=O)[C@H](CO)NC(=O)[C@@H](Cc2c[nH]c3ccccc23)NC(=O)[C@@H](CO)NC(=O)[C@@H](C(C)C)NC(=O)[C@H](Cc2ccccc2)NC1=O` (cyclo([dV][dS][dW]SG[dV]F)), the minimal inhibitory concentration (MIC) in experiment [2] was 100 µM (≈ 76.3 µg/mL).

Consider `CC(C)[C@H]1NC(=O)[C@H](Cc2ccccc2)NC(=O)[C@@H](C(C)C)NC(=O)[C@@H](C)NC(=O)[C@H](CO)NC(=O)[C@@H](Cc2c[nH]c3ccccc23)NC(=O)[C@@H](CO)NC1=O` (cyclo([dV][dS][dW]S[dA][dV]F)), for which the minimal inhibitory concentration (MIC) in experiment [2] is above 100 µM.

In the case of `NNC(=O)c1ccncc1` [ISONIAZID], in experiment [2], the minimum inhibitory concentration (MIC) came out at 0.0125 µM (≈ 0.00171 µg/mL).

As to `CO[C@H]1/C=C/O[C@@]2(C)Oc3c(C)c(O)c4c(O)c(c(/C=N/N5CCN(C)CC5)c(O)c4c3C2=O)NC(=O)/C(C)=C\C=C\[C@H](C)[C@H](O)[C@@H](C)[C@@H](O)[C@@H](C)[C@H](OC(C)=O)[C@@H]1C` [RIFAMPIN], the MIC in experiment [2] came out at 0.00625 µM (≈ 0.00514 µg/mL).
